Where a SMILES comes first, the peptide text is derived from it. [ ]: non-standard residue; d: D form. Dmt = Cc1cc(O)cc(C)c1C[C@H](N)C(=O)O
How the values were obtained:
isolated mitochondria [1] = test: Respirometry (oxygen consumption) of mitochondria under calcium stress; set-up: species or system S. cerevisiae; settings: mitochondria 1 mg ml^−1, SS-31 54.4 μM, CaCl2 1 mM, preincubated on ice 20 min; n = 10–12
Protocol: (§1) Figure 7. SS peptide effects on Ca^2+-membrane interactions and mitochondrial cation stress. A, profiles of surface potential decay (top) and ion distribution (bottom) based on GCS theory in the presence or absence of SS-31 (see supporting Results H for model description). B, effect of SS peptides on Ca^2+ accumulation at model membrane interfaces. Time course measurements of CG-5N emission were performed in solutions with LUVs (20 mol % TOCL in host POPC background, [lipid]^eff = 100 μM) prebound with SS peptide at the indicated concentration followed by titration of CaCl2 in increments of 1 nmol at 20-s intervals starting at t = 60 s. C and D, effect of SS peptides on mitochondrial Ca^2+ uptake. […] Spectral deconvolution yielded the indicated components (see Fig. S19, A and B), which were used to quantify the area ratios of L2/iso in F (values shown are means ± S.D. (error bars) (n = 3). G, respirometry analysis. Mitochondria (1 mg ml^−1) were treated in the absence or presence of SS-31 (54.4 μM) or CaCl2 (1 mM) as indicated and measured for state 2 respiration (n = 10–12 each).
Finally, we measured the effects of SS peptides on mitochondrial calcium stress that may occur independently of Ca^2+ uptake into the matrix. […] To corroborate these findings, we measured mitochondrial oxygen consumption rates under similar conditions of SS peptide treatment and calcium stress. […]

isolated mitochondria [2] = test: TMRM time course of ΔΨm generation in mitochondria with ETH-129 and calcium; set-up: species or system S. cerevisiae
Protocol: as §1, with “s.” for “s. C and D, effect of SS peptides on mitochondrial Ca^2+ uptake.”
Second, we measured the effects of SS peptides on mitochondrial Ca^2+ flux. […] In these experiments, we monitored the relative ΔΨm using the potentiometric probe tetramethylrhodamine methyl ester (TMRM) (the emission of which is inversely related to membrane potential; Fig. S17E) and, in parallel, monitored the external [Ca^2+] using CG-5N (Fig. 7C and Fig. S18A). […]

Cc1cc(O)cc(C)c1C[C@H](NC(=O)[C@H](N)CCCNC(=N)N)C(=O)N[C@@H](CCCCN)C(=O)N[C@@H](Cc1ccccc1)C(N)=O [SS-31, D-Arg-2′6′-dimethyl-Tyr-Lys-Phe-NH2] (H-[dR][Dmt]KF-NH2) was tested, and the “effect on calcium-induced increase in basal (state 2) respiration” value (isolated mitochondria [1]) was “prevented”, the “dose response of effect on Ca2+-dependent ΔΨm generation delay” value (isolated mitochondria [2]; 25 μM CaCl2, 1 mM NADH, n = 3) was “dose-dependent and saturable” and the “effect on temporal delay in mitochondrial energization (ΔΨm generation) with Ca2+” value (isolated mitochondria [2]; ETH-129, NADH, increasing [Ca2+], TMRM) was “reduced the extent of this temporal delay”.

Source: article PMC7247319, “The mitochondria-targeted peptide SS-31 binds lipid bilayers and modulates surface electrostatics as a key component of its mechanism of action” (The Journal of Biological Chemistry, 2020)
